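Step 1: Grow cells in 96-well plates. Step 2: Expose to compound for 48 hours at 5 concentrations. Step 3: Interpolate endpoints linearly; if unreached, use highest concentration. GI50: concentration for 50% inhibition of growth. TGI marks complete inhibition of growth.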
Assays:
Assay in all cases: NCI-60 cell line screen, 48 h
786-0 renal = system: 786-0 renal
A498 renal = system: A498 renal
A549 NSCLC = system: A549 NSCLC
ACHN renal = system: ACHN renal
BT-549 breast = system: BT-549 breast
CAKI-1 renal = system: CAKI-1 renal
CCRF-CEM leukemia = system: CCRF-CEM leukemia
COLO 205 colon = system: COLO 205 colon
DU-145 prostate = system: DU-145 prostate
EKVX NSCLC = system: EKVX NSCLC
HCC-2998 colon = system: HCC-2998 colon
HCT-116 colon = system: HCT-116 colon
HCT-15 colon = system: HCT-15 colon
HOP-62 NSCLC = system: HOP-62 NSCLC
HS 578T breast = system: HS 578T breast
HT29 colon = system: HT29 colon
IGROV1 ovarian = system: IGROV1 ovarian
K-562 leukemia = system: K-562 leukemia
KM12 colon = system: KM12 colon
LOX IMVI melanoma = system: LOX IMVI melanoma
M14 melanoma = system: M14 melanoma
MALME-3M melanoma = system: MALME-3M melanoma
MCF7 breast = system: MCF7 breast
MDA-MB-231 breast = system: MDA-MB-231 breast
MDA-MB-435 = system: MDA-MB-435
MOLT-4 leukemia = system: MOLT-4 leukemia
NCI-H226 lung = system: NCI-H226 lung
NCI-H23 lung = system: NCI-H23 lung
NCI-H460 lung = system: NCI-H460 lung
NCI-H522 lung = system: NCI-H522 lung
NCI/ADR-RES ovarian = system: NCI/ADR-RES ovarian
OVCAR-3 ovarian = system: OVCAR-3 ovarian
OVCAR-4 ovarian = system: OVCAR-4 ovarian
OVCAR-5 ovarian = system: OVCAR-5 ovarian
OVCAR-8 ovarian = system: OVCAR-8 ovarian
PC-3 prostate = system: PC-3 prostate
RXF 393 renal = system: RXF 393 renal
SF-268 CNS = system: SF-268 CNS
SF-295 CNS = system: SF-295 CNS
SF-539 CNS = system: SF-539 CNS
SK-MEL-2 melanoma = system: SK-MEL-2 melanoma
SK-MEL-28 melanoma = system: SK-MEL-28 melanoma
SK-MEL-5 melanoma = system: SK-MEL-5 melanoma
SK-OV-3 ovarian = system: SK-OV-3 ovarian
SNB-19 CNS = system: SNB-19 CNS
SNB-75 CNS = system: SNB-75 CNS
SR leukemia = system: SR leukemia
TK-10 renal = system: TK-10 renal
U251 CNS = system: U251 CNS
UACC-257 melanoma = system: UACC-257 melanoma
UACC-62 melanoma = system: UACC-62 melanoma
UO-31 renal = system: UO-31 renal

## O=C(CI)Nc1ccc(Br)cc1
786-0 renal
  GI50: 2.23 µM
  TGI: 4.62 µM
A498 renal
  GI50: 16.3 µM
  TGI: 33.1 µM
A549 NSCLC
  GI50: 5.89 µM
  TGI: 29.3 µM
ACHN renal
  GI50: 2 µM
  TGI: 4.06 µM
BT-549 breast
  GI50: 1.64 µM
  TGI: 3.14 µM
CAKI-1 renal
  GI50: 1.69 µM
  TGI: 3.51 µM
CCRF-CEM leukemia
  GI50: 1.75 µM
  TGI: > 100 µM
COLO 205 colon
  GI50: 1.85 µM
  TGI: 3.7 µM
DU-145 prostate
  GI50: 1.77 µM
  TGI: 3.18 µM
EKVX NSCLC
  GI50: 2.25 µM
  TGI: 5.85 µM
HCC-2998 colon
  GI50: 13.4 µM
  TGI: 27.3 µM
HCT-116 colon
  GI50: 1.88 µM
  TGI: 3.45 µM
HCT-15 colon
  GI50: 2.09 µM
  TGI: 5.13 µM
HOP-62 NSCLC
  GI50: 1.89 µM
  TGI: 3.82 µM
HS 578T breast
  GI50: 5.05 µM
  TGI: > 100 µM
HT29 colon
  GI50: 2.43 µM
  TGI: 5.28 µM
IGROV1 ovarian
  GI50: 2.35 µM
  TGI: 4.88 µM
K-562 leukemia
  GI50: 2.53 µM
  TGI: > 100 µM
KM12 colon
  GI50: 2.9 µM
  TGI: 10.7 µM
LOX IMVI melanoma
  GI50: 0.326 µM
  TGI: 1.46 µM
M14 melanoma
  GI50: 1.92 µM
  TGI: 3.85 µM
MALME-3M melanoma
  GI50: 2.1 µM
  TGI: 4.29 µM
MCF7 breast
  GI50: 1.91 µM
  TGI: 3.95 µM
MDA-MB-231 breast
  GI50: 2.6 µM
  TGI: 5.51 µM
MDA-MB-435
  GI50: 2.04 µM
  TGI: 4.7 µM
MOLT-4 leukemia
  GI50: 3.43 µM
  TGI: > 100 µM
NCI-H226 lung
  GI50: 3.78 µM
  TGI: 19.2 µM
NCI-H23 lung
  GI50: 1.87 µM
  TGI: 4.61 µM
NCI-H460 lung
  GI50: 12.4 µM
  TGI: 45.8 µM
NCI-H522 lung
  GI50: 1.53 µM
  TGI: 3.47 µM
NCI/ADR-RES ovarian
  GI50: 3.03 µM
  TGI: 9.76 µM
OVCAR-3 ovarian
  GI50: 1.72 µM
  TGI: 3.25 µM
OVCAR-4 ovarian
  GI50: 2.92 µM
  TGI: 7.25 µM
OVCAR-5 ovarian
  GI50: 2.14 µM
  TGI: 4.81 µM
OVCAR-8 ovarian
  GI50: 2.46 µM
  TGI: 5.95 µM
PC-3 prostate
  GI50: 2.43 µM
  TGI: 6.22 µM
RXF 393 renal
  GI50: 1.7 µM
  TGI: 3.21 µM
SF-268 CNS
  GI50: 1.8 µM
  TGI: 3.65 µM
SF-295 CNS
  GI50: 11.2 µM
  TGI: 30.7 µM
SF-539 CNS
  GI50: 1.81 µM
  TGI: 3.67 µM
SK-MEL-2 melanoma
  GI50: 2.9 µM
  TGI: 8.03 µM
SK-MEL-28 melanoma
  GI50: 3.82 µM
  TGI: 11.3 µM
SK-MEL-5 melanoma
  GI50: 3.95 µM
  TGI: 15.4 µM
SK-OV-3 ovarian
  GI50: 1.99 µM
  TGI: 3.99 µM
SNB-19 CNS
  GI50: 15.1 µM
  TGI: 33.5 µM
SNB-75 CNS
  GI50: 5.42 µM
  TGI: 24.7 µM
SR leukemia
  GI50: 0.365 µM
  TGI: > 100 µM
TK-10 renal
  GI50: 1.92 µM
  TGI: 3.63 µM
U251 CNS
  GI50: 1.83 µM
  TGI: 3.87 µM
UACC-257 melanoma
  GI50: 2.05 µM
  TGI: 4.66 µM
UACC-62 melanoma
  GI50: 3.96 µM
  TGI: 14.8 µM
UO-31 renal
  GI50: 1.63 µM
  TGI: 3.17 µM

From PubChem BioAssay (NCI)
